In patent publication US20240358693A1, “METHODS OF TREATING PAIN” (Aisa Pharma, Inc., priority 2023, published 2024):

Test system: participants with SSc-RP
Test: Scleroderma Health Assessment Questionnaire (SHAQ): disability indices and visual analog scales
Type: in vivo, human
Conditions: Day 12 vs baseline; PP Population, Part A; SSc patients; sensitivity analysis
Source text: The standard, validated, patient reported outcome measures tool for SSc patients, the Scleroderma Health Assessment Questionnaire (SHAQ), will be used to assess the participant qualify of life. Details are attached in the Appendix. The participant quality of life will be scored, and a disability index calculated for each questionnaire completed by the patient at Screening and each in-clinic visit. The absolute change in participant quality of life from baseline to the end of each dosing period will be calculated similar to frequency data as before.
The SHAQ includes a Raynaud's VAS, which will be reported at screening and each in-clinic visit. The absolute change in Raynaud-VAS, assessed by the participants response to the SHAQ question ‘In the past 7 days, how much have your Raynaud's interfered with your daily activities?’ at baseline and the end of each dosing period will be calculated similar to frequency data as before.
The SHAQ is used to calculate a Disability Index to assess the participant qualify of life. The eight categories assessed by the Disability Index are 1) dressing and grooming, 2) arising, 3) eating, 4) walking, 5) hygiene, 6) reach, 7) grip, and 8) common daily activities. For each of these categories, patients report the amount of difficulty they have in performing two or three specific activities.
There are four possible responses for the Disability Index questions: • Without any difficulty=0 • With some difficulty=1 • With much difficulty=2 • Unable to do=3. • The highest score reported by the patient for any component question of the eight categories determines the score for that category. • If a component question is left blank or the response is too ambiguous to assign a score, then the score for that category is determined by the remaining completed question(s). • If all component questions are blank or if more than one answer is given, then follow up with the respondent is required. • If the respondent's mark is between the response columns, then move it to the closest one. If it's directly between the two, move it to the higher one.
Each of the disability items on the SHAQ has a companion aids/devices variable that is used to record what type(s) of assistance, if any, the participant uses for his/her usual activities. These variables (see below) are coded as follows: • 0=No assistance is needed. • 1=A special device is used by the patient in his/her usual activities. • 2=The patient usually needs help from another person. • 3=The patient usually needs BOTH a special device AND help from another person.
The scoring variables and scoring rules permit the computation of two disability indices, the Standard Disability Index and the Alternative Disability Index.
This question results in a new set of category scores that are computed by adjusting the score for each category, if necessary, based on the patient's use of an aid or device or assistance for that category. If either devices and/or help from another person are checked for a category, the score is set to “2”, unless the score is already “3” (i.e., scores of “0” or “1” are increased to “2”). For example, if the highest score for the dressing category is “1”, and the patient says they use a device for dressing, the computed category score would be “2”. The sum of the computed categories scores is then calculated and divided by the number of categories answered. This gives a score in the 0 to 3 range.
The aid and device variables are not used to calculate the alternative disability index; it is calculated by adding the scores for each of the categories and dividing by the number of categories answered. This gives a score in the 0 to 3 range.
The standard, validated, patient reported outcome measures tool for SSc patients, the SHAQ, was collected at the time points specified in the study schedules (FIG. 2 and FIGS. 4A and 4B) to assess the participant's quality of life. The SHAQ included a Raynaud's VAS that will also be reported separately.

For `COCCOC(=O)C1=C(C)NC(C)=C(C(=O)OC/C=C/c2ccccc2)C1c1cccc([N+](=O)[O-])c1` (stereo not drawn) [Pooled Cilnidipine], the “SHAQ Alternative Disability Index, Change from Baseline, Max” value was 0.38, the “SHAQ Alternative Disability Index, Change from Baseline, Mean” value was 0.031 and the “SHAQ Alternative Disability Index, Change from Baseline, Median” value was 0.000. The “SHAQ Alternative Disability Index, Change from Baseline, Min” value was −0.13, the “SHAQ Alternative Disability Index, Change from Baseline, Q1” value was −0.125 and the “SHAQ Alternative Disability Index, Change from Baseline, Q3” value was 0.125. The “SHAQ Alternative Disability Index, Percent Change from Baseline, Max” value was 100.0%, the “SHAQ Alternative Disability Index, Percent Change from Baseline, Mean” value was 9.68% and the “SHAQ Alternative Disability Index, Percent Change from Baseline, Median” value was −11.11%. The “SHAQ Alternative Disability Index, Percent Change from Baseline, Min” value was −50.0%, the “SHAQ Alternative Disability Index, Percent Change from Baseline, Q1” value was −33.33% and the “SHAQ Alternative Disability Index, Percent Change from Baseline, Q3” value was 42.86%. The “SHAQ Visual Analogue Scale - Finger Ulcers, Change from Baseline, Max” value was 0.40, the “SHAQ Visual Analogue Scale - Finger Ulcers, Change from Baseline, Mean” value was −0.643 and the “SHAQ Visual Analogue Scale - Finger Ulcers, Change from Baseline, Median” value was 0.000. For the same compound, the “SHAQ Visual Analogue Scale - Finger Ulcers, Change from Baseline, Min” value was −3.20, the “SHAQ Visual Analogue Scale - Finger Ulcers, Change from Baseline, Q1” value was −1.000 and the “SHAQ Visual Analogue Scale - Finger Ulcers, Change from Baseline, Q3” value was 0.000. For the same compound, the “SHAQ Visual Analogue Scale - Finger Ulcers, Percent Change from Baseline, Max” value was 133.3%, the “SHAQ Visual Analogue Scale - Finger Ulcers, Percent Change from Baseline, Mean” value was −17.08% and the “SHAQ Visual Analogue Scale - Finger Ulcers, Percent Change from Baseline, Median” value was −50.82%. For the same compound, the “SHAQ Visual Analogue Scale - Finger Ulcers, Percent Change from Baseline, Min” value was −100.0%, the “SHAQ Visual Analogue Scale - Finger Ulcers, Percent Change from Baseline, Q1” value was −81.37% and the “SHAQ Visual Analogue Scale - Finger Ulcers, Percent Change from Baseline, Q3” value was 47.22%. The “SHAQ Visual Analogue Scale - Intestinal Problems, Change from Baseline, Max” value was 0.60, the “SHAQ Visual Analogue Scale - Intestinal Problems, Change from Baseline, Mean” value was −0.863 and the “SHAQ Visual Analogue Scale - Intestinal Problems, Change from Baseline, Median” value was −0.050. For the same compound, the “SHAQ Visual Analogue Scale - Intestinal Problems, Change from Baseline, Min” value was −4.40, the “SHAQ Visual Analogue Scale - Intestinal Problems, Change from Baseline, Q1” value was −1.650 and the “SHAQ Visual Analogue Scale - Intestinal Problems, Change from Baseline, Q3” value was 0.150. For the same compound, the “SHAQ Visual Analogue Scale - Intestinal Problems, Percent Change from Baseline, Max” value was 40.0%, the “SHAQ Visual Analogue Scale - Intestinal Problems, Percent Change from Baseline, Mean” value was −43.69% and the “SHAQ Visual Analogue Scale - Intestinal Problems, Percent Change from Baseline, Median” value was −66.06%. The “SHAQ Visual Analogue Scale - Intestinal Problems, Percent Change from Baseline, Min” value was −100.0%, the “SHAQ Visual Analogue Scale - Intestinal Problems, Percent Change from Baseline, Q1” value was −100.00% and the “SHAQ Visual Analogue Scale - Intestinal Problems, Percent Change from Baseline, Q3” value was 30.00%. The “SHAQ Visual Analogue Scale - Overall Disease Severity, Change from Baseline, Max” value was 0.20, the “SHAQ Visual Analogue Scale - Overall Disease Severity, Change from Baseline, Mean” value was −1.450 and the “SHAQ Visual Analogue Scale - Overall Disease Severity, Change from Baseline, Median” value was −1.550. For the same compound, the “SHAQ Visual Analogue Scale - Overall Disease Severity, Change from Baseline, Min” value was −3.10, the “SHAQ Visual Analogue Scale - Overall Disease Severity, Change from Baseline, Q1” value was −1.850 and the “SHAQ Visual Analogue Scale - Overall Disease Severity, Change from Baseline, Q3” value was −0.950. The “SHAQ Visual Analogue Scale - Overall Disease Severity, Percent Change from Baseline, Max” value was −26.8%, the “SHAQ Visual Analogue Scale - Overall Disease Severity, Percent Change from Baseline, Mean” value was −61.10% and the “SHAQ Visual Analogue Scale - Overall Disease Severity, Percent Change from Baseline, Median” value was −60.00%. For the same compound, the “SHAQ Visual Analogue Scale - Overall Disease Severity, Percent Change from Baseline, Min” value was −100.0%, the “SHAQ Visual Analogue Scale - Overall Disease Severity, Percent Change from Baseline, Q1” value was −76.19% and the “SHAQ Visual Analogue Scale - Overall Disease Severity, Percent Change from Baseline, Q3” value was −44.12%. For the same compound, the “SHAQ Visual Analogue Scale - Pain, Change from Baseline, Max” value was 0.70, the “SHAQ Visual Analogue Scale - Pain, Change from Baseline, Mean” value was −0.375 and the “SHAQ Visual Analogue Scale - Pain, Change from Baseline, Median” value was −0.250. The “SHAQ Visual Analogue Scale - Pain, Change from Baseline, Min” value was −2.00, the “SHAQ Visual Analogue Scale - Pain, Change from Baseline, Q1” value was −0.750 and the “SHAQ Visual Analogue Scale - Pain, Change from Baseline, Q3” value was 0.150. For the same compound, the “SHAQ Visual Analogue Scale - Pain, Percent Change from Baseline, Max” value was 19.4%, the “SHAQ Visual Analogue Scale - Pain, Percent Change from Baseline, Mean” value was −23.98% and the “SHAQ Visual Analogue Scale - Pain, Percent Change from Baseline, Median” value was −41.18%. For the same compound, the “SHAQ Visual Analogue Scale - Pain, Percent Change from Baseline, Min” value was −55.6%, the “SHAQ Visual Analogue Scale - Pain, Percent Change from Baseline, Q1” value was −53.33% and the “SHAQ Visual Analogue Scale - Pain, Percent Change from Baseline, Q3” value was 11.54%. The “SHAQ Visual Analogue Scale - Raynaud’s, Change from Baseline, Max” value was 1.50, the “SHAQ Visual Analogue Scale - Raynaud’s, Change from Baseline, Mean” value was −0.438 and the “SHAQ Visual Analogue Scale - Raynaud’s, Change from Baseline, Median” value was −0.600.
